US11186587B2, “Compound as ACC inhibitor and use thereof” (NANJING SANHOME PHARMACEUTICAL CO., LTD., priority 2017, dated 2021)

How the values were obtained:
ACC1 = ACC1 (Homo sapiens (Human), UniProt Q13085); assay: ACC1 enzyme activity assay (ADP-Glo); assay type: biochemical; conditions: ACC1 enzyme 2 nM working solution, room temperature
Description: (§1) Compound preparation: the compounds of the present disclosure prepared in the above examples and the control compound were respectively formulated into 10 mM with DMSO for use.
(§2) Preparation of 1× reaction buffer (pH=7.4): HEPES stock solutions (1 M), MgCl2 (1 M), BRIJ-35 (10%), potassium citrate buffer (1 M), BSA (10 mg/mL) and DTT (500 mM) were formulated to enzyme reaction buffer containing HEPES (50 mM), MgCl2 (2 mM), BRIJ-35 (0.01%), potassium citrate buffer (2 mM), BSA (50 Gg/mL) and DTT (2 mM).
4.5 μL of 2.2×ACC1 enzyme (2 nM) working solution was added to a 384-well plate; and then 0.5 μL of different concentrations of compound were added. The mixture was incubated at room temperature for 15 min.
(§3) Negative control group: menstruum containing 5% DMSO; positive control group: menstruum containing 100 nM ND-630. The average values of each concentration and the positive and negative controls were calculated, and the standard deviation was calculated. […] The inhibition rate data was fitted by nonlinear regression equation to calculate IC50 of each compound. The nonlinear regression equation was Y=lowest value+(highest value−lowest value)/(1+10^((Log IC50−X)×HillSlope)), among which X is logarithm of the compound concentration and Y is inhibition percent (%).

ACC2 = ACC2 (Homo sapiens (Human), UniProt O00763); assay: ACC2 enzyme activity assay (ADP-Glo); assay type: biochemical; conditions: ACC2 enzyme 1.1 nM working solution, room temperature
Sequence of ACC2 (O00763 whole entry): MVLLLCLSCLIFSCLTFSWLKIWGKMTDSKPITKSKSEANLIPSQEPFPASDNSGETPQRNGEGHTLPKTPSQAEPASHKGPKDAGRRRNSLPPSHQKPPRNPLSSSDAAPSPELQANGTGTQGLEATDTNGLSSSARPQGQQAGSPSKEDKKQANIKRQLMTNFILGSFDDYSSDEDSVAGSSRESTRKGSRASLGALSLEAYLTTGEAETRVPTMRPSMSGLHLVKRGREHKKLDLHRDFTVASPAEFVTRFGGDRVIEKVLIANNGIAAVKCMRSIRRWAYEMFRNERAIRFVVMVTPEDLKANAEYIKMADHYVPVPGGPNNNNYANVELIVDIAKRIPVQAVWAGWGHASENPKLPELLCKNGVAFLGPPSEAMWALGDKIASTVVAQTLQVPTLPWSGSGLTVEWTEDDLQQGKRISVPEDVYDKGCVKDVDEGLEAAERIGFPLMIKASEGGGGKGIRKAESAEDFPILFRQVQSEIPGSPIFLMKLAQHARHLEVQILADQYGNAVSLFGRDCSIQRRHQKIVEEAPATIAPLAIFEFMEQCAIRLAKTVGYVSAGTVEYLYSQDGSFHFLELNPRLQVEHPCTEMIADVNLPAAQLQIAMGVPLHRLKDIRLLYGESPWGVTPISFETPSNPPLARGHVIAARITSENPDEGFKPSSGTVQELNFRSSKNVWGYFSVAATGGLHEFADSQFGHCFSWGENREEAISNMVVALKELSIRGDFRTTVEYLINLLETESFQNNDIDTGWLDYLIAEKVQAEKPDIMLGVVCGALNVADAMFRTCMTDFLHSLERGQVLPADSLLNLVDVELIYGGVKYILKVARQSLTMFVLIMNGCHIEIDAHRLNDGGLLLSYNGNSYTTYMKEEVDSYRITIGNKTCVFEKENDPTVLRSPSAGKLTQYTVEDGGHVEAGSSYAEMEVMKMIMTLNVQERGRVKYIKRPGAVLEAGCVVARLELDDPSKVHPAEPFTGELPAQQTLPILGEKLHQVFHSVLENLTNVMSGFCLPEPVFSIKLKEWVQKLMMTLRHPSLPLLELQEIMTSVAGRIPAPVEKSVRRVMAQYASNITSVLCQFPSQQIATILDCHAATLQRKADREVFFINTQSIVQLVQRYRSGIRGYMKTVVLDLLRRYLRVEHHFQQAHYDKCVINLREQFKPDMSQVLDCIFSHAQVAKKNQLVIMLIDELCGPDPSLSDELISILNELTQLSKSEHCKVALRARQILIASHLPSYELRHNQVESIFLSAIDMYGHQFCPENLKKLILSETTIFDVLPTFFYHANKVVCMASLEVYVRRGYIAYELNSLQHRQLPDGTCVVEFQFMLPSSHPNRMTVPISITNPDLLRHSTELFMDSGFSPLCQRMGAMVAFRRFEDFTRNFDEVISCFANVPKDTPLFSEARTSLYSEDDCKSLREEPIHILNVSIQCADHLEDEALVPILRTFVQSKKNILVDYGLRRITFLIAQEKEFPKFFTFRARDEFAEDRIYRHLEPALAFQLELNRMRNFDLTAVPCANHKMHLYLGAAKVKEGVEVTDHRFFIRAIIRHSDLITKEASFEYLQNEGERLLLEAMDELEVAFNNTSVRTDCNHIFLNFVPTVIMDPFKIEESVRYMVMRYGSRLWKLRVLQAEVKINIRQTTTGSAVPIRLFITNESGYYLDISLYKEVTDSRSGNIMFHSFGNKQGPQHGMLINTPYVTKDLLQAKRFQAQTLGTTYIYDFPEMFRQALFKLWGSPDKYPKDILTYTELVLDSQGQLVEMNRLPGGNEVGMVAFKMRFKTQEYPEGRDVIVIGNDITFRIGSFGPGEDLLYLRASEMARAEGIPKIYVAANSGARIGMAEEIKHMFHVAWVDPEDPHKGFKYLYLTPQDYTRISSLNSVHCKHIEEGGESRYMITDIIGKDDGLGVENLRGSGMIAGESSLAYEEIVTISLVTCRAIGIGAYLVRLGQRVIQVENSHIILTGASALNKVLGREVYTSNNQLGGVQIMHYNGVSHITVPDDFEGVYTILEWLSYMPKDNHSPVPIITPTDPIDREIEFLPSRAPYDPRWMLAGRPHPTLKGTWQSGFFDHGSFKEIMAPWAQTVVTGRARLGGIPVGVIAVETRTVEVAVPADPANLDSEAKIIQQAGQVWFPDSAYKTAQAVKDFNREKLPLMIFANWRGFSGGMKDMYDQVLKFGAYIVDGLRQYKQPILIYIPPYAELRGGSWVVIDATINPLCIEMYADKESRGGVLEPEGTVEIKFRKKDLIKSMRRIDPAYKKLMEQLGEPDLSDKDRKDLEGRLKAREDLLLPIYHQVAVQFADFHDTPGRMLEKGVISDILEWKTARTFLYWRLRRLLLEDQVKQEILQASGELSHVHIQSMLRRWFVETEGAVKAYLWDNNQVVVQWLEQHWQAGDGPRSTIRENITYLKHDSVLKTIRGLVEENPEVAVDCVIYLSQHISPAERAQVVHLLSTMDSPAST
Description: as §1, §2
The mixture was incubated at room temperature for 15 min.
as §3

[1] = system: HFD-CCL4 induced NASH model; assay: Drug efficacy on NASH and liver fibrosis induced by HFD-CCL4; assay type: in vivo; conditions: C57BL/6 mice, HFD 10 weeks + CCL4 4 weeks; intragastric once a day for 4 weeks; Example 25 10 mg/kg/d, ND-630 30 mg/kg/d; H&E staining
Description: High-fat diet (HFD) was used to induce liver steatosis in animals, and then carbon tetrachloride (CCL4) was used to induce liver inflammation, necrosis, and liver fibrosis. This model was similar to the human NASH disease process and pathological phenomenon. The purpose of this experiment was to evaluate the efficacy of the compound of the disclosure in a NASH model of C57BL/6 mice induced by HFD-CCL4, with ND-630 as a control compound. HFD-CCL4 inducement was performed for 10 weeks and drug intervention was performed for 4 weeks. The therapeutic effects of the drug on NASH and liver fibrosis were observed.
The test compounds in the examples of the present disclosure and ND-630 were diluted to 0.3 mg/mL, 1 mg/mL, 3 mg/mL with PEG200:0.2M Na2HPO4-NaH2PO4 buffer (35:65), which was prepared just before use.
HFD-CCL4 induced NASH model in C57BL/6 mice: the animals were first housed in the SPF barrier of the KCI Experimental Animal Center for 3-7 days, and then the animals were changed to HFD feeding in a cycle of 10 weeks. […]
The left liver lobe sample was fixed with 10% formalin and embedded in paraffin to prepare 5 μm sections for haematoxylin-eosin (H&E) staining. Hematoxylin-eosin staining can detect tissue inflammation, fat deposition, vacuolar degeneration and tissue fibrosis, giving semi-quantitative analysis for the lesion.
The data were expressed as mean±standard error. […]

With `COc1ccccc1[C@H](Cn1c(=O)n(C(C)(C)C(=O)O)c(=O)c2c(C)c(-c3ncco3)sc21)OC1CCOCC1` [ND-630, 2-[1-[2-(2-methoxyphenyl)-2-(oxecyclo-4-yloxy)ethyl]-5-methyl-6-(1,3-oxazol-2-yl)-2,4-dioxo-1H,2H,3H,4H-thieno[2,3-d]pyrimidin-3-yl]-2-methylpropanoic acid, reference compound] the IC50 (ACC1) was 0.5 nM, the IC50 (ACC2) was 3.56 nM and the “Hepatic steatosis score (Mean ± SD)” value [1] was 0.13 ± 0.32. The “Hepatocyte necrosis score (Mean ± SD)” value [1] was 1.00 ± 0.61.
